# According to patent publication US20070196491A1, “DRUG DELIVERY SYSTEMS COMPRISING WEAKLY BASIC DRUGS AND ORGANIC ACIDS” (EURAND, INC., priority 2006, published 2007):
# Counter-ions that a name gives are not always drawn. Like-named read-outs stand apart in the source and are kept apart here.
# How the values were obtained:
# [1] = Solubilities of weakly basic drugs in organic acid buffers
# [2] = pH 2.14
# [3] = cited from earlier work
# [4] = intestinal regions; cited from earlier work
compound,measurement,setting,value
O=C1CN=C(c2ccccc2Cl)c2cc([N+](=O)[O-])ccc2N1 [Clonazepam],Solubility (mg/mL) of Clonazepam in Fumaric Acid,[1]; pH of buffer 4.8,0.0095 mg/mL
"Cc1nccn1CC1CCc2c(c3ccccc3n2C)C1=O (stereo not shown) [Ondansetron Hydrochloride, Ondansetron hydrochloride]",Solubility of Ondansetron Hydrochloride,"[1]; fumaric acid 0.0025 mg/mL, start pH 4.15, end pH 4.33",26100 µg/mL
same,Solubility of Ondansetron Hydrochloride,"[1]; fumaric acid 0.01 mg/mL, start pH 3.64, end pH 4.05",26100 µg/mL
same,Solubility of Ondansetron Hydrochloride,"[1]; fumaric acid 0.25 mg/mL, start pH 2.79, end pH 2.75",26200 µg/mL
same,Solubility of Ondansetron Hydrochloride,"[1]; fumaric acid 1 mg/mL, start pH 2.48, end pH 2.40",26100 µg/mL
same,Solubility of Ondansetron Hydrochloride,"[1]; fumaric acid 5 mg/mL, start pH 2.13, end pH 2.01",26900 µg/mL
same,Solubility of Ondansetron Hydrochloride,[2],27000 µg/mL
same,solubility (in words),[3]; at a pH of 6.8,practically insoluble
same,solubility (in words),[3]; at acidic pHs,fairly soluble
OCCN(CCO)c1nc(N2CCCCC2)c2nc(N(CCO)CCO)nc(N3CCCCC3)c2n1 [Dipyridamole],solubility (in words),[3]; in dilute acids,soluble
same,solubility (in words),"[3]; in water, neutral and alkaline buffers",practically insoluble
COc1ccccc1OCCNCC(O)COc1cccc2[nH]c3ccccc3c12 (racemic) [Carvedilol],"in vivo absorption within the intestine, decreasing order",[4],jejunum>ileum>colon
same,solubility,"physchem; pH 2.12, aqueous buffer",2510 µg/mL
same,solubility,"physchem; pH 2.28, aqueous buffer",1360 µg/mL
same,solubility,"physchem; pH 2.54, aqueous buffer",731 µg/mL
same,solubility,"physchem; pH 2.94, aqueous buffer",508 µg/mL
same,solubility,"physchem; pH 3.64, aqueous buffer",121 µg/mL
same,solubility,"physchem; pH 5.46, aqueous buffer",105 µg/mL
same,solubility,"physchem; pH 5.9, aqueous buffer",28 µg/mL
same,aqueous solubility,[3]; above a pH of 9,< 1 µg/mL
same,aqueous solubility,[3]; at a pH 5,about 100 μg/mL
same,aqueous solubility,[3]; at a pH of 7,about 23 μg/mL
